Results reported in PMC12040169 (PLOS Biology, 2025).

Assay: in vitro
Settings: human, hela cells, % viability

SMILES | viability at 28.5 h, 10 µM [%]
CS(=O)(=O)c1ccc(-c2ccc(C(=O)N3CCN(C(=O)c4ccco4)CC3)cn2)cc1 [CBK160190] | 95.2
Nc1ncc(-c2ccc(C(=O)N3CCOCC3)cc2)cc1C(=O)Nc1ccc(C(F)(F)F)cc1 [CBK160204] | 90.6
COc1cccc(NC(=O)c2cncc(-c3ccc(C(=O)N4CCOCC4)cc3)c2)c1 [CBK160213] | 96.2
NC(=O)c1ccc(NC(=O)c2cncc(-c3ccc(C(=O)N4CCOCC4)cc3)c2)cc1 [CBK160214] | 106
O=C(Nc1ccc(F)c(C(F)(F)F)c1)c1cncc(-c2ccc(C(=O)N3CCOCC3)cc2)c1 [CBK160216] | 88.2
CCOC(=O)N1CCC(NC(=O)c2cnn3c(C)c(Cc4ccccc4)c(C)nc23)CC1 [CBK160293] | 90.7
CCOC(=O)C1CCN(C(=O)c2cnn3c(C)c(Cc4cccc(Cl)c4)c(C)nc23)CC1 [CBK160305] | 92.5
Cc1onc(-c2ccccc2Cl)c1C(=O)N(C)C [CBK160325] | 102
CN1CCC(N2CCN(C(=O)c3cncc(-c4[nH]nnc4-c4ccccc4)c3)CC2)CC1 [CBK160327] | 98.3
O=S(=O)(Nc1cccc(-c2nnn[nH]2)c1)c1cc(Br)c(Cl)s1 [CBK160374] | 102
CC(=O)c1c(C)oc2ccc(O)c(CN3CCOCC3)c12 [CBK160396] | 104
Oc1c(Br)cc2oc3c(c2c1CNc1ccccc1)CCCC3 [CBK160397] | 103
CC(C)NCc1c(O)c(Br)cc2oc3c(c12)CCCC3 [CBK160400] | 96.5
CCc1onc(-c2ccccc2)c1C(=O)NCCO [CBK160434] | 89.8
Cc1onc(-c2c(Cl)cccc2Cl)c1C(=O)N(C)C [CBK160437] | 97
CS(=O)(=O)c1ccc(-c2ccc(C(=O)N3CCN(Cc4ccc(F)c(F)c4)CC3)nc2)cc1 [CBK160485] | 87.4

SMILES | viability at 28.5 h, 10 µM [%]
CCN(CC)CCN(CCc1ccc(OC)c(OC)c1)C(=O)Nc1ccc(Cl)cc1 [CBK160510] | 96.6
O=C(C(Cc1ccccc1)c1ccccc1)N1CCC2(CCN(CCCCOc3ccccc3)C2)C1 (centres unmarked) [CBK160643] | 101
CC(=O)NCc1cccc(-c2cc(C(=O)Nc3ccc4c(c3)OCCO4)cnc2-c2cccnc2)c1 [CBK160658] | 88.6
O=C(COc1ccccc1)N1CCC(Oc2nccnc2OCc2ccc(Cl)c(Cl)c2)CC1 [CBK160718] | 99
O=C(c1ccc(F)cc1)N1CCC(Oc2nccnc2OCc2ccc(Cl)c(Cl)c2)CC1 [CBK160721] | 85.9
COc1cc2nc(N3CCC4(CCN(C(=O)C(c5ccccc5)C(C)C)C4)C3)nc(N)c2cc1OC (centres unmarked) [CBK160790] | 76.3
Cc1cc(C(=O)N2CCN(C(=O)c3cn(Cc4ccc(S(C)(=O)=O)cc4)nn3)CC2)n(C)n1 [CBK160824T] | 110
CCCOc1ccc(OC(=O)COc2ccccc2)cc1 [CBK160853] | 93.3
CCCC[C@H]1CC[C@H](C(=O)Oc2ccc(OC(C)C(=O)O)cc2)CC1 (some centres unmarked) [CBK160854] | 93.8
CN(C)C(=O)N1CCN(C(=O)c2cn(Cc3cccc(S(C)(=O)=O)c3)nn2)CC1 [CBK160969T] | 89.7
O=C(Cc1csc(-c2ccc(Cl)cc2)n1)NCC1CCCN1 (centres unmarked) [CBK160982] | 106
COC(=O)CCC(=O)N1CCCC2(CCN(C(=O)c3ccoc3)C2)C1 (centres unmarked) [CBK160988] | 100
CCOC(=O)C1(C2CCCCC2)CCN(C(=O)CN2C(=O)CSC2=O)CC1 [CBK160993] | 97.1
CC(C)OC(=O)N1CCN(C(=O)c2cn(Cc3cccc(S(C)(=O)=O)c3)nn2)CC1 [CBK160994T] | 88.5
O=C(NCCc1c[nH]cn1)c1ccccc1-n1cccc1 [CBK161000] | 92.4
O=C(NCc1c(F)cccc1F)c1ccc(-c2ccc(OC(F)(F)F)cc2)nc1 [CBK161007T] | 97.6
